≈ marks a conversion by molar mass, not a printed value.
Legend:
[1] = tested on: adhesion of P. aeruginosa (ST 1763) to epithelial bronchial cells (CuFi-1); parameters: method as in PMID 31216664; details: previous study; cited from earlier work
lectin PA-IL [2] = biological target: T1, lectin PA-IL (Pseudomonas aeruginosa, UniProt Q05097); assay: Hemagglutination inhibition assay (HIA) with microscope detection; type: biochemical
T1 construct: made in house; host or cells: Escherichia coli BL21(DE3)
T1 sequence (Q05097 2-122): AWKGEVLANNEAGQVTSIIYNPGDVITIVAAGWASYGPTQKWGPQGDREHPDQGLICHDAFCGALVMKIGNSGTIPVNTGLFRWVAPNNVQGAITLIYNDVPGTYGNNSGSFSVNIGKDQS
Protocol: PA-IL was dissolved in the buffer with calcium ions suitable for the activity of the lectin (20 mM Tris/HCl, 150 mM NaCl, 5 mM CaCl2, pH = 7.5) to the concentration 0.25 mg mL^−1. Lectin was mixed with carbohydrate inhibitors serially diluted in the buffer in a 5 µL:5 µL ratio. Therefore, the final (working) concentration of the lectin was 0.125 mg mL^−1. A total of 10 µL of 20% papain-treated, azid-stabilized red blood cells B^+ in the buffer was then added, and the mixture was thoroughly mixed and incubated for 5 min at room temperature. After incubation, the mixture was again mixed, transferred to a microscope slide, and examined. The examination was conducted using the Levenhuk D2L NG Digital Microscope (Levenhuk, Tampa, FL, USA). Images were obtained with a Levenhuk D2L digital camera (Levenhuk, Tampa, FL, USA) using the software ToupView for Windows (Version 3.7, Levenhuk, Tampa, FL, USA). The positive (experiment without inhibitor) and negative control (experiment without lectin) were prepared and processed in the same way using the appropriate volume of dissolving buffer instead of the omitted components. The minimal inhibitory concentration (MIC) of the inhibitor able to inhibit hemagglutination was determined and compared with the standard (D-galactose) and the potency of the inhibitor was calculated (MIC of the standard/MIC of the inhibitor).

lectin PA-IL [3] = biological target: T1, lectin PA-IL; assay: Isothermal titration microcalorimetry (ITC); type: binding
Protocol: All the experiments were performed on MicroCal iTC200 (Malvern Instruments, Malvern, UK) at 25 °C. The freeze-dried lectin PA-IL was dissolved in 0.1 M Tris/HCl, 500 μM CaCl2, pH = 7.5, and equilibrated at room temperature for 1 h before ITC measurements. Multivalent galactosylated compounds 4, 7, 10 and 13 were diluted in the same buffer and used in 0.25–0.5 mM concentrations. Aliquots of 2 µL of the compounds were added automatically to the 0.078 mM or 0.088 mM PA-IL in the calorimeter cell. Blank experiments (injections of compounds to the buffer) were performed and heat responses were subtracted. Integrated heat effects were analyzed by global fitting of data obtained from three independent titrations for each tested compound by non-linear regression using a single site-binding model (Microcal Origin 7, Malvern Instruments, Malvern, UK). Fitted data yielded the association constant (Ka) and the enthalpy of binding (ΔH). Other thermodynamic parameters, i.e., changes in free energy (ΔG) and entropy (ΔS), were calculated from the following equation: ΔG = ΔH − TΔS = −RT ln Ka, where T is the absolute temperature and R = 8.314 J mol^−1 K^−1. The monosaccharide D-galactose was used as a control; 4 mM D-galactose was added to the 0.147 mM PA-IL in the calorimeter cell. Two titration experiments were performed and the heat responses were processed and evaluated as mentioned above.

lectin PA-IL [4] = biological target: T1, lectin PA-IL; assay: Analytical ultracentrifugation (sedimentation velocity), cross-linking of lectin; details: protein:ligand ratios 1:0.1, 1:1, 1:10
Protocol: Analytical ultracentrifugation experiments were performed using ProteomeLab XL-I analytical ultracentrifuge (Beckman Coulter, Indianapolis, IN, USA) equipped with an An-60 Ti rotor. Sedimentation velocity experiments were conducted in titanium double-sector centerpiece cells (Nanolytics Instruments, Potsdam, Germany) loaded with 390 µL of both protein sample and reference solution (PBS buffer, pH = 7.5). PA-IL without the added ligand and PA-IL samples pre-incubated with different concentrations of galactosylated dendrimers 4, 7, 10 and 13 and D-galactose (protein:ligand ratios of 1:0.1, 1:1 and 1:10) were analyzed by the sedimentation velocity experiment. All the measurements were performed in PBS buffer with 22 µM PA-IL. Data were collected using absorbance optics at 25 °C at a rotor speed of 48,000 rpm. Scans were collected at 280 nm (or alternatively at 294 nm to decrease the absorbance signal of the samples containing excess of the UV-absorbing ligands 4 and 10) at 5-min intervals and 0.003 cm spatial resolution in continuous scan mode. The partial specific volume of the protein and the solvent density and viscosity were calculated from the amino acid sequence and buffer composition, respectively, using the software Sednterp (http://bitcwiki.sr.unh.edu). The data were analyzed with the continuous c(s) distribution model implemented in the program Sedfit 15.01b. For the regularization procedure, a confidence level of 0.95 was used. The plots of c(s) distributions were created in GUSSI 1.3.1 [28].

lectin PA-IL [5] = biological target: T1, lectin PA-IL; assay: SPR inhibition of PA-IL binding to immobilized D-galactosides
Protocol: Surface plasmon resonance (SPR) experiments were performed on a BIAcore T200 instrument (GE Healthcare, Chicago, IL, USA) at 25 °C, using HBST running buffer (10 mM HEPES, 150 mM NaCl, 0.5 mM CaCl2, 0.05% Tween 20, pH = 7). A CM5 sensor chip (GE Healthcare, Chicago, IL, USA) covered with a carboxymethylated dextran matrix was used for ligand immobilization. The sensor chip surface was activated with N-ethyl-N-(3-dimethylaminopropyl)carbodiimide/N-hydroxysuccinimide solution and then coated with streptavidin (Sigma-Aldrich, St. Louis, MO, USA) in 10 mM acetate pH = 5.0 according to the manufacturer’s standard protocol to a final response of 7000 RU. Unreacted groups were blocked with 1 M ethanolamine-HCl, pH = 8.5. 0.5 mM biotinylated carbohydrate (1:1 mixture of biotin-α-D-galactoside and biotin-β-D-galactoside for measuring channel and α-L-fucoside for blank channel, all Lectinity, Moskow, Russia) was injected into a particular channel at a flow rate of 5 μL min^−1.
In the experimental setup, SPR inhibition measurements were carried out simultaneously on both measuring and blank channels at a flow rate of 5 µL min^−1. […] The response of the blank channel was subtracted from the response of lectin bound to the galactose-modified surface at equilibrium and plotted against the concentration of inhibitor in order to determine IC50 (concentration of inhibitor resulting in 50% inhibition of binding). As IC50 is not a constant and depends on the experimental set-up, a parameter called potency was used for characterization. The potency of a tested inhibitor is the ratio of IC50 of a chosen standard inhibitor (in this case, D-galactose) and the inhibitor in question. Pure lectin PA-IL was used as a control (0% inhibition).

C[C@@H]1O[C@@H](OCc2cn(CCOCCOCCOCCn3cc(COCC(COCc4cn(CCOCCOCCOCCn5cc(CO[C@@H]6O[C@@H](C)[C@@H](O)[C@@H](O)[C@@H]6O)nn5)nn4)(COCc4cn(CCOCCOCCOCCn5cc(CO[C@@H]6O[C@@H](C)[C@@H](O)[C@@H](O)[C@@H]6O)nn5)nn4)COCc4cn(CCOCCOCCOCCn5cc(CO[C@@H]6O[C@@H](C)[C@@H](O)[C@@H](O)[C@@H]6O)nn5)nn4)nn3)nn2)[C@@H](O)[C@H](O)[C@@H]1O [Compound 14]
most effective concentration [1]: 250 µM

O=C[C@H](O)[C@@H](O)[C@@H](O)[C@H](O)CO [D-galactose, reference compound]
Potency (MIC of standard/MIC of inhibitor) (lectin PA-IL [2]; HIA, standard D-galactose): 1
β (Potency/Valency) (lectin PA-IL [2]; HIA, standard D-galactose): 1
MIC (minimal inhibitory concentration) (lectin PA-IL [2]; inhibition of hemagglutination caused by PA-IL (0.125 mg mL−1), papain-treated red blood cells B+): 6.25 mM (≈ 1130 µg/mL)
Kd (lectin PA-IL [3]): 147 µM
ΔH (lectin PA-IL [3]; ITC, 25 °C): -9.03 ± 0.698 kcal/mol
−T ΔS (lectin PA-IL [3]; ITC, 25 °C, calculated from ΔG = ΔH − TΔS): 3.8 ± 0.507 kcal/mol
ΔG (lectin PA-IL [3]; ITC, 25 °C, calculated from −RT ln Ka): -5.23 ± 0.294 kcal/mol
n (stoichiometry) (lectin PA-IL [3]; ITC, 25 °C, single site-binding model): 0.78 ± 0.05
cross-linking of PA-IL (formation of the 6.4 S particle) (lectin PA-IL [4]): negligible effect
IC50 (lectin PA-IL [5]): 187 µM
Potency (IC50 of standard/IC50 of inhibitor) (lectin PA-IL [5]; SPR, standard D-galactose): 1
β (Potency/Valency) (lectin PA-IL [5]; SPR, standard D-galactose): 1

Source: publication PMC6920806, “Synthesis of β-D-galactopyranoside-Presenting Glycoclusters, Investigation of Their Interactions with Pseudomonas aeruginosa Lectin A (PA-IL) and Evaluation of Their Anti-Adhesion Potential” (Biomolecules, 2019)
